Experimental findings from article PMC11434868, “Synthesis and Antiproliferative Effect of 3,4,5-Trimethoxylated Chalcones on Colorectal and Prostatic Cancer Cells” (Pharmaceuticals, 2024) are described below.

Like-named read-outs stand apart in the source and are kept apart here.

Usually IC50 stands for the concentration that gives 50% inhibition.

For one assay, the system named is PC3. Description: MTT assay, antiproliferative effect on PC3. It counts as cell-based. To be noted: Homo sapiens. As to the method:
(§1) Human CRC (HCT116 and HT-29) and PCa (DU145 and PC3) cell lines were purchased from the American Type Culture Collection (ATCC—LGC Standards, Molsheim, France). All cells were grown in RPMI 1640 medium supplemented with 10% FBS, 1% L-glutamine, 100 U/mL penicillin, and 100 μg/mL streptomycin. Cultures were maintained in a humidified atmosphere containing 5% CO2 at 37 °C. Cells were seeded in 75 cm^2 culture flasks at 1.2 × 10^4 cells/cm^2 for HCT116, DU145, and PC3 cells, and 2.0 × 10^4 for HT-29 cells. Cells were grown for 24 h in culture medium prior to exposure or not to obtain the synthesized compounds. Stock solutions (10^−2 M in DMSO) of each compound were diluted in culture medium to obtain appropriate final concentrations.
(§2) • (a) MTT assay: The antiproliferative effect of all compounds was determined using MTT assay (a metabolic activity test). Briefly, cells were seeded in 96-well culture plates at 4 × 10^3 cells/well for HCT116, PC3, and DU145 cells and 6 × 10^3 cells/well for HT-29 cells (100 µL/well), and grown for 24 h in culture medium prior to exposure or not to obtain compounds 1–15 with concentrations ranging from 5 nM to 50 μM. After 24 and 48 h of treatment, MTT (5 mg/mL in PBS) was added and incubated for another 3 h. MTT was then removed from the wells before adding 100 μL/well of DMSO. The optical density was detected with a microplate reader (Multiskan FC, Thermoscientific, Bordeaux, France) at 550 nm and cell viability was expressed as a percentage of each treatment condition compared to control cells. IC50 values were calculated for all compounds from the dose–response curve. Data are expressed as the arithmetic means ± standard error of the mean (SEM) of separate experiments. All experiments were performed at least in triplicate. • (b) Trypan blue dye exclusion method: Cells were grown for 24 h then treated with compounds 10 and 13 at indicated concentrations. After 48 h of treatment, cells were trypsinized and resuspended in complete medium. Each sample was mixed with Trypan blue solution (0.14% in HBSS, Invitrogen-GIBCO, ThermoFisher, Illkirch, France). Colored (non-viable) and dye-excluding (viable) cells were counted with the LUNA-II automated cell Counter (Logos Biosystems; MC2, Aubière, France). The control was normalized to 100% including viable and dead cells. The results indicated on the histograms were expressed as the percentage of cells compared to the control. IC50 values were determined from the percentages of viable cells compared to the control.
On the technique in general: Tetrazolium dyes change colour on reduction, which living cells bring about.

The test system of assay [1] is human PCa (DU145 and PC3) cell lines. Description: MTT assay, summary statements for PCa cells. The format is cell-based. To be noted: Homo sapiens, DU-145, DU145 and PC3, text summary; read-out: IC50 towards PCa cells. As for the experimental part: as §1, §2
Where [2] appears, read: PC-3, 24 h, read-out: IC50 PC3 24 h.
Setting [3] is: PC-3, 48 h, read-out: IC50 PC3 48 h.

On to `COc1cc(C(=O)/C=C/c2c[nH]c3ccccc23)cc(OC)c1OC` [chalcone 10, (E)-3-(1H-indol-3-yl)-1-(3,4,5-trimethoxyphenyl)prop-2-en-1-one], for which the IC50 is 44 ± 6 nM with PC3 (setting [2]), 17 ± 5 nM with PC3 (setting [3]) and 17 to 31 nM in assay [1].
For `COc1cc(C(=O)/C=C/c2coc3ccc(C)cc3c2=O)cc(OC)c1OC` [chalcone 13, (E)-6-methyl-3-(3-oxo-3-(3,4,5-trimethoxyphenyl)prop-1-en-1-yl)-4H-chromen-4-one], the IC50 in the assay with PC3 (setting [2]) was 5180 ± 390 nM; in the assay with PC3 (setting [3]), 5130 ± 250 nM.
